# Measurements: patent US20250144067A1, “PERSONALIZED STARVATION THERAPY FOR CANCER” (Faeth Therapeutics, Inc., priority 2021, published 2025)
# Where a name gives a salt, the structure may show the parent alone. Read-outs that look alike come from different tables or passages of the source.
# What was measured:
# [1] = tested on: NCI-H292 lung cancer cells; experiment: FDA drug screening, complete media vs cholesterol-free media without statin (TABLE 1); type: cell-based, human
# [2] = tested on: NCI-H292 lung cancer cells; experiment: FDA drug screening, complete media vs cholesterol-free media with simvastatin (TABLE 2); type: cell-based, human
# [3] = NCI-H292 cells, cholesterol-free media without statin
# [4] = complete vs cholesterol-free media, greater than 0 enhanced anti-cancer activity, about 0 neutral, below 0 antagonists
# [5] = NCI-H292 cells, FDA drug library screen, cholesterol-free media with simvastatin 0.04 μM
# [6] = NCI-H292 cells, FDA drug library screen, complete media
# [7] = complete media vs cholesterol-free media + simvastatin (0.04 μM), >0 enhanced anti-cancer activity, about 0 neutral, <0 antagonist
# [8] = NCI-H292 cells, FDA library drug in cholesterol-free media with simvastatin 0.04 μM
# [9] = NCI-H292 cells, FDA library drug in complete media
# [10] = complete media minus cholesterol-free media + simvastatin, >0 enhanced anti-cancer activity, about 0 neutral, <0 antagonist
# [11] = NCI-H292 cells, cholesterol-free media without statin, FDA drug library screen
# [12] = NCI-H292 cells, complete media, FDA drug library screen
# [13] = Complete minus Cholesterol-free, >0 enhanced anti-cancer activity, about 0 neutral, <0 antagonist
structure (smiles),measurement,setting,value
O=c1[nH]ccc2c(S(=O)(=O)N3CCCNCC3)cccc12 [Hydroxyfasudil (hydrochloride)],Cholesterol-free,[1],1.045
same,Complete,[1],0.7884
same,Difference,[1],−0.26
same,Cholesterol-free media + simvastatin (0.04 μM),[2],0.8461
same,Complete Media,[2],0.9788
same,Difference,[2],0.13
O=c1[nH]ccc2c(S(=O)(=O)N3CCCNCC3)cccc12 [Hydroxyfasudil],Cholesterol-free,[1],0.944
same,Complete,[1],1.011
same,Difference,[1],0.07
same,Cholesterol-free media + simvastatin (0.04 μM),[2],0.9404
same,Complete Media,[2],0.8562
same,Difference,[2],−0.08
CCCCCC(=O)O[C@]1(C(C)=O)CC[C@H]2[C@@H]3CCC4=CC(=O)CC[C@]4(C)[C@H]3CC[C@@]21C [Hydroxyprogesterone caproate],Cholesterol-free,[1]; [3],1.133
same,Complete,"[1]; NCI-H292 cells, complete media",0.7393
same,Difference,[1]; [4],−0.39
same,Cholesterol-free media + simvastatin (0.04 μM),[2]; [5],1.029
same,Complete Media,[2]; [6],0.8959
same,Difference,[2]; [7],−0.13
NC(=O)NO [Hydroxyurea],Difference,"[1]; Complete minus Cholesterol-free, greater than 0 enhanced anti-cancer activity, about 0 neutral, below 0 antagonists",−0.79
same,Cholesterol-free,[1]; NCI-H292 cells in cholesterol-free media without statin,1.72
same,Complete,[1]; NCI-H292 cells in complete media,0.9327
same,Cholesterol-free media + simvastatin (0.04 μM),[2]; [8],1.418
same,Complete Media,[2]; [9],1.131
same,Difference,[2]; [7],−0.29
OCCOCCN1CCN(C(c2ccccc2)c2ccc(Cl)cc2)CC1 (stereo not shown) [Hydroxyzine (dihydrochloride)],Cholesterol-free,[1]; [3],1.474
same,Complete,"[1]; NCI-H292 cells, complete media",1.128
same,Difference,[1]; [4],−0.35
same,Cholesterol-free media + simvastatin (0.04 μM),[2]; [5],0.6407
same,Difference,[2]; [10],0.53
O=C(O)c1cc2ccccc2c(Cc2c(O)c(C(=O)O)cc3ccccc23)c1O.OCCOCCN1CCN(C(c2ccccc2)c2ccc(Cl)cc2)CC1 [Hydroxyzine (pamoate)],Cholesterol-free,[1]; [11],0.6403
same,Complete,[1]; [12],0.9622
same,Difference,"[1]; complete vs cholesterol-free media, >0 enhanced anti-cancer activity, about 0 neutral, <0 antagonist",0.32
same,Cholesterol-free media + simvastatin (0.04 μM),[2]; [5],1.16
same,Complete Media,[2]; [6],1.053
same,Difference,[2]; [7],−0.11
C[C@H](CCC(=O)O)[C@H]1CC[C@H]2[C@@H]3C[C@H](O)[C@@H]4C[C@H](O)CC[C@]4(C)[C@H]3CC[C@]12C [Hyodeoxycholic acid],Cholesterol-free,[1]; [3],1.462
same,Complete,"[1]; NCI-H292 cells, complete media",1.016
same,Difference,[1]; [4],−0.45
same,Cholesterol-free media + simvastatin (0.04 μM),[2]; [5],0.7549
same,Complete Media,[2]; [6],0.9966
same,Difference,[2]; [10],0.24
O=c1c(O[C@@H]2O[C@H](CO)[C@H](O)[C@H](O)[C@H]2O)c(-c2ccc(O)c(O)c2)oc2cc(O)cc(O)c12 [Hyperoside],Difference,[1]; [13],−0.03
same,Cholesterol-free,[1]; [11],0.9192
same,Complete,[1]; [12],0.8906
same,Cholesterol-free media + simvastatin (0.04 μM),[2]; [5],0.9665
same,Complete Media,[2]; [6],0.8144
same,Difference,[2]; [7],−0.15
CCCCCN(C)CCC(O)(P(=O)(O)O)P(=O)(O)O [Ibandronate (Sodium Monohydrate)],Difference,[1]; [13],−0.03
same,Cholesterol-free,[1]; [11],1.101
same,Complete,[1]; [12],1.074
same,Cholesterol-free media + simvastatin (0.04 μM),[2]; [8],1.077
same,Complete Media,[2]; [9],0.796
same,Difference,[2]; [7],−0.28
C=CC(=O)N1CCC[C@@H](n2nc(-c3ccc(Oc4ccccc4)cc3)c3c(N)ncnc32)C1 [Ibrutinib],Difference,[1]; [13],−0.07
same,Cholesterol-free,[1]; [11],0.4459
same,Complete,[1]; [12],0.3765
same,Cholesterol-free media + simvastatin (0.04 μM),[2]; [5],0.5962
same,Complete Media,[2]; [6],0.4594
same,Difference,[2]; [7],−0.14
CC(C)C(=O)c1c(C(C)C)nn2ccccc12 [Ibudilast],Difference,[1]; [13],0.04
same,Cholesterol-free,[1]; [11],1.126
same,Complete,[1]; [12],1.165
same,Cholesterol-free media + simvastatin (0.04 μM),"[2]; NCI-H292 cells, cholesterol-free media with simvastatin 0.04 μM, cell growth value in FDA drug screen",1.245
same,Complete Media,"[2]; NCI-H292 cells, complete media, cell growth value in FDA drug screen",1.273
same,Difference,[2]; [10],0.03
CC(C)Cc1ccc(C(C)C(=O)OCc2ccccn2)cc1 (stereo not shown) [Ibuprofen piconol],Difference,"[1]; Complete minus Cholesterol-free, greater than 0 enhanced anti-cancer activity, about 0 neutral, below 0 antagonist",−0.18
same,Cholesterol-free,"[1]; NCI-H292 cells, FDA drug library screen, cholesterol-free media without statin",1.26
same,Complete,[1]; [6],1.082
same,Cholesterol-free media + simvastatin (0.04 μM),[2]; [8],1.357
same,Complete Media,[2]; [9],0.8958
same,Difference,[2]; [7],−0.46
CC(C)Cc1ccc(C(C)C(=O)O)cc1 (stereo not shown) [Ibuprofen],Cholesterol-free,[1]; [3],1.419
same,Complete,"[1]; NCI-H292 cells, complete media",1.058
same,Difference,[1]; [4],−0.36
same,Cholesterol-free media + simvastatin (0.04 μM),[2]; [8],1.512
same,Difference,[2]; [7],−0.36
C#Cc1cccc(Nc2ncnc3cc4c(cc23)OCCOCCOCCO4)c1 [Icotinib (Hydrochloride)],Difference,[1]; [13],0.05
same,Cholesterol-free,[1]; [11],0.2697
same,Complete,[1]; [12],0.324
same,Cholesterol-free media + simvastatin (0.04 μM),"[2]; NCI-H292 cells, cholesterol-free media with simvastatin 0.04 μM, FDA drug library screen (TABLE 2)",0.5866
same,Complete Media,"[2]; NCI-H292 cells, complete media, FDA drug library screen (TABLE 2)",0.5343
same,Difference,"[2]; complete media minus cholesterol-free media + simvastatin (0.04 μM), >0 enhanced anti-cancer activity, about 0 neutral, <0 antagonist",−0.05
